From BigSolDB 2.1

Cc1ccc[n+](CCCC[n+]2cccc(C)c2)c1.F[P-](F)(F)(F)(F)F.F[P-](F)(F)(F)(F)F
solubility (mole fraction)
Conditions	288.15 K	293.15 K	298.15 K	303.15 K	308.15 K	313.15 K	318.15 K	323.15 K	328.15 K	333.15 K
in 2-butanone	0.00289	0.00328	0.00379	0.00439	0.00496	0.00556	0.00623	0.00706	0.00771	0.00856
in acetophenone	–	–	0.000748	0.00103	0.00138	0.00183	0.0024	0.00311	0.00428	0.00556
in acetylacetone	0.00119	0.00157	0.00214	0.00282	0.00368	0.00462	0.00598	0.00807	0.0101	0.0136
in cyclohexanone	0.000205	0.000333	0.00051	0.000746	0.000967	0.00121	0.00146	0.00164	0.0018	0.00186
in water	2e-06	3e-06	5e-06	8e-06	1.4e-05	2.4e-05	3.9e-05	6.3e-05	9.8e-05	0.000157
